For 89 compounds, EC50 results are on record in PubChem BioAssay AID816 (SRMLSC, 2007).

Calls of active or inactive are those of the source. No rule for the calls is given here.

The assay relates to S. cerevisiae GAL1 promoter reporter activation counterscreen. Nature of the assay: GAL1 promoter activators in yeast, artefact control for yeast lifespan extension project, S. cerevisiae (AID 816).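 Also: yeast growth read after 24 h of incubation with compounds.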
Take `Cc1ccc(S(=O)(=O)C(C#N)c2nc3ccccc3nc2N2CCCC2)cc1` (centres undefined): the EC50 is > 40 µM (inactive).
As to `CN(C)C1(c2nnnn2CCOC(=O)Nc2ccc(Cl)cc2)CCCCC1`, the EC50 was > 40 µM (inactive).
In the case of `CCSc1nnc(NC(=O)C2(C)Cc3ccccc3C(=O)O2)s1` (centres undefined), the EC50 is > 40 µM (inactive).
Regarding `CCCCCC1CC1C(=O)N/N=C/c1ccc(N(C)C)cc1` (centres undefined), the EC50 was > 40 µM (inactive).
Turning to `Cc1cc(C(=O)CN2C(=O)NC(C)(CC(C)C)C2=O)c(C)n1-c1ccc2c(c1)OCO2` (centres undefined), the EC50 is > 40 µM (inactive).
Under `CSc1ccc(S(=O)(=O)NCc2ccc(Cl)cc2Cl)cc1` stands > 40 µM (inactive).
In the case of `C/C(=N\NC(=O)c1cccc(Cl)c1)C1C(=O)c2ccccc2C1=O`, the EC50 was > 40 µM (inactive).
For `O=C(NCc1ccc(Cl)cc1)c1ccccc1CCc1ccccc1`, the EC50 was > 40 µM (inactive).
On to `CC(C)c1nnc(NC(=O)c2c(O)c3cccc4c3n(c2=O)CCC4)s1`, for which the EC50 is > 40 µM (inactive).
Turning to `O=C1NC(=O)N(CCC2=CCCCC2)C(=O)/C1=C\c1cccs1`, the EC50 is > 40 µM (inactive).
Take `CC1(C)CC2c3cccc(C(=O)O)c3C(=O)N2c2c1ccc1ccccc21` (centres undefined): the EC50 is > 40 µM (inactive).
In the case of `Cc1ccc(C(=O)OC2=CC(=O)CC(C)(C)C2)cc1`, the EC50 was > 40 µM (inactive).
Take `Cc1cccc(N2C(=O)C(Oc3ccc(Cl)cc3Cl)C2C=O)c1C` (centres undefined): the EC50 was > 40 µM (inactive).
With `CCc1ccc(CC2S/C(=C(\C#N)C(C)=O)NC2=O)cc1` (centres undefined), the EC50 is > 40 µM (inactive).
For `CC1CCCCC1NC(=O)/C(C#N)=C/c1ccccc1F` (centres undefined), the EC50 was > 40 µM (inactive).
With `CCn1c(=O)c2ccccc2n2c(SCC(=O)N3CCCc4ccccc43)nnc12`, the EC50 is > 40 µM (inactive).
Consider `CS(=O)(=O)c1nc(-c2cccs2)cc(C(F)(F)F)n1`, for which the EC50 is > 40 µM (inactive).
As to `Cc1ccccc1OC(=O)n1c(=S)oc2cc(Cl)ccc21`, the EC50 was > 40 µM (inactive).
Consider `Cc1ccc(NC(=O)Nc2nc(-c3ccc(C)s3)cs2)cc1`, for which the EC50 was > 40 µM (inactive).
Turning to `O=C(c1cnn2c(C(F)F)cc(C3CC3)nc12)N1CCCC1`, the EC50 is > 40 µM (inactive).
As to `Cc1cc(C)c(S(=O)(=O)c2ccccc2)c(OC(=O)c2ccc(Cl)cc2Cl)n1`, the EC50 was > 40 µM (inactive).
Under `CC(=O)N1CCN(CCN=CC2=C(O)CC(c3cccs3)CC2=O)CC1` (centres undefined) stands > 40 µM (inactive); under `CN(C)c1ccc(S(=O)(=O)c2ccc(Cl)cc2)cc1`, > 40 µM (inactive).
The same measure for `COc1ccc(/C=C(\C#N)C(=O)N2CCOCC2)cc1Br`: > 40 µM (inactive).
For the compound `CCOc1ccc(/C=C2/C(=O)NC(=O)N(CCc3ccc(F)cc3)C2=O)cc1`, the EC50 was > 40 µM (inactive).
The same measure for `COc1cccc(/C=C/C(=O)c2c(O)cc(C)oc2=O)c1O`: > 40 µM (inactive); for `COc1cccc(CSc2nc3ccccc3cc2C=O)c1`: > 40 µM (inactive).
The same measure for `CCCc1nc2c(c(=O)c3ccccc3n2C)c(=O)n1C1CCCCCC1`: > 40 µM (inactive).
Turning to `COCCN(CCOC)S(=O)(=O)c1ccc(C(=O)Nc2sc3c(c2C(N)=O)CCCCC3)cc1`, the EC50 is > 40 µM (inactive).
As for `CC(=O)Oc1ccccc1N1C(=O)c2ccc(C(=O)O)cc2C1=O`, the EC50 is > 40 µM (inactive).
The same measure for `C=CS(=O)(=O)c1ccc(Oc2ccc(S(=O)(=O)C=C)cc2)cc1`: > 40 µM (inactive).
For the compound `COCCCNC(CC(=O)Nc1ccc(OC)cc1OC)C(=O)O` (centres undefined), the EC50 is > 40 µM (inactive).
With `CCc1nc(SCC(=O)c2ccc3c(c2)OCCO3)c2ccccc2n1`, the EC50 is > 40 µM (inactive).
With `COc1ccc(-c2cc(C(F)(F)F)nc(S(C)(=O)=O)n2)cc1`, the EC50 was > 40 µM (inactive).
Take `O=C(/C(=C/O)N=Nc1ccc(Cl)cc1)c1ccncc1`: the EC50 was > 40 µM (inactive).
Under `CCn1c(/C=N/c2nc3ccccc3n2C)nc2ccccc21` stands > 40 µM (inactive); under `Nc1cccc2c1C(=O)N(C(=O)c1ccc(Cl)c(S(=O)(=O)N3CCCCCC3)c1)C2=O`, > 40 µM (inactive); under `Cc1cc2c(c(=O)n1CCc1ccccc1)C(c1ccco1)C(C#N)=C(N)O2` (centres undefined), > 40 µM (inactive).
In the case of `Cn1c(=O)c(=O)n(C)c2cc(S(=O)(=O)N3CCN(Cc4ccccc4)CC3)ccc21`, the EC50 is > 40 µM (inactive).
The same measure for `CC1Cc2ccccc2N1C(=O)Cn1cnc2ccccc2c1=O` (centres undefined): > 40 µM (inactive).
In the case of `CNC(=S)NC1CC2CCCC(C1)N2Cc1ccco1` (centres undefined), the EC50 was > 40 µM (inactive).
The same measure for `O=C(NCc1ccco1)c1c(O)c2cccc3c2n(c1=O)CCC3`: > 40 µM (inactive); for `CCCCC(c1nnnn1CC1CCCO1)N1CCN(c2nc3ccccc3s2)CC1` (centres undefined): > 40 µM (inactive).
Regarding `O=C(Nc1scc(-c2cccs2)c1C(=O)O)c1cccs1`, the EC50 is > 40 µM (inactive).
Under `Cc1cc(C)n2cc(CSc3nnc(N)s3)nc2n1` stands > 40 µM (inactive).
Consider `O=C(N/N=C/c1ccccc1)c1c(O)c2ccccc2[nH]c1=O`, for which the EC50 is > 40 µM (inactive).
Under `C=CCN(CC=C)S(=O)(=O)c1ccc2nc(NC(=O)C(C)C)sc2c1` stands > 40 µM (inactive); under `Cc1ccc(CNc2nc3ccccc3s2)s1`, > 40 µM (inactive); under `O=c1c2ccccc2sn1-c1ccccc1`, > 40 µM (inactive).
Turning to `Cc1ccc(NC(=O)CN2CCN(CCN=CC3=C(O)CC(c4ccccc4)CC3=O)CC2)cc1` (centres undefined), the EC50 was > 40 µM (inactive).
Regarding `C=C(C(=O)c1ccccc1)C(C)C(=C)C(=O)c1ccccc1`, the EC50 is > 40 µM (inactive).
In the case of `COC(=O)c1sc(S(=O)(=O)Nc2ccc(Br)cc2)c(C(=O)OC)c1C`, the EC50 is > 40 µM (inactive).
Under `CCOC(=O)CCCNC(=O)COc1ccccc1C#N` stands > 40 µM (inactive); under `Cc1ccc(C(=O)NNC(=S)NC(=O)c2ccc(Cl)cc2)cc1`, > 40 µM (inactive); under `Oc1ccc(NCc2ccccc2OCc2ccccc2F)cc1`, > 40 µM (inactive).
As to `COc1cc(Br)cc(-c2nc3c(c(=O)[nH]c(=O)n3Cc3ccccc3)n2C)c1O`, the EC50 was > 40 µM (inactive).
Regarding `CCCCNC(=O)/C(C#N)=C/c1cccnc1`, the EC50 is > 40 µM (inactive).
In the case of `COc1ccc(-c2cc(N)n(S(=O)(=O)c3c(F)c(F)c(F)c(F)c3F)n2)cc1OC`, the EC50 is > 40 µM (inactive).
Regarding `CC1=NN(c2ccc(C(F)(F)F)cn2)C(=O)C1`, the EC50 was > 40 µM (inactive).
On to `O=C1c2ccccc2NC(c2ccc(Cl)cc2Cl)N1O` (centres undefined), for which the EC50 was > 40 µM (inactive).
Turning to `COc1ccc(/C=N/NC(=O)c2csc(-n3nc(C)cc3C(F)(F)F)n2)cc1`, the EC50 was > 40 µM (inactive).
`COC(=O)c1cc(OC)c(OC)cc1NC(=S)Nc1cccc(C(C)=O)c1`: the EC50 is > 40 µM (inactive).
Consider `O=C(O)Cc1ccc(N=Cc2c(O)ccc3ccccc23)cc1`, for which the EC50 was > 40 µM (inactive).
As to `O=C1OC2(CCCCC2)OC(=O)C1=CNc1nc2ccccc2s1`, the EC50 was > 40 µM (inactive).
Consider `Cc1ccc(OCC(=O)c2c(O)c3ccccc3oc2=O)cc1C`, for which the EC50 is > 40 µM (inactive).
Under `Cc1cc(C)c(NC(=O)/C(=C/c2ccccc2)c2ccccc2)c(C)c1` stands > 40 µM (inactive); under `CCCC(=O)C1C(=O)CC(CC(C)SCC)CC1=O` (centres undefined), > 40 µM (inactive); under `CCn1ncc(/C=N/NC(=O)c2ccc3c(c2)OCO3)c1C`, > 40 µM (inactive).
On to `O=[N+]([O-])c1cc(S(=O)(=O)N2CCCCCC2)ccc1F`, for which the EC50 is > 40 µM (inactive).
As to `CCC1CCCCN1S(=O)(=O)c1ccc(S(=O)(=O)N(Cc2cccs2)C2CC2)cc1` (centres undefined), the EC50 was > 40 µM (inactive).
Take `COc1cc(OC)cc(-c2nc3ccccc3c(=O)n2OC(=O)c2ccc(Br)cc2)c1`: the EC50 is > 40 µM (inactive).
In the case of `O=C1C(Cl)=C(Nc2ccccc2O)C(=O)N1CCc1ccccc1`, the EC50 is > 40 µM (inactive).
As for `O=C(O)CCCCCN1C(=O)/C(=C\c2ccncc2)SC1=S`, the EC50 is > 40 µM (inactive).
Take `O=c1c(Cl)c(NCCCO)cnn1-c1nc2ccccc2[nH]1`: the EC50 was > 40 µM (inactive).
Turning to `C/C(=N\NC(=O)c1cccnc1)c1c(O)cc(C)oc1=O`, the EC50 is > 40 µM (inactive).
As to `CC(C)C(OC(=O)CN1C(=O)COc2ccccc21)C(=O)NC1CCCC1` (centres undefined), the EC50 is > 40 µM (inactive).
In the case of `c1ccc(-c2c(-c3ccccc3)n(Cc3ccco3)c3ncnc(NCCCn4ccnc4)c23)cc1`, the EC50 was > 40 µM (inactive).
The same measure for `C[C@]12CC[C@@H]3c4ccc(O)cc4CC[C@H]3[C@@H]1CC[C@@H]2OC(=O)CCC(=O)O`: > 40 µM (inactive).
The same measure for `Cc1ccnc(SCc2cc(=O)c(OC(=O)c3ccco3)co2)n1`: > 40 µM (inactive); for `COc1ccc(-c2cc(C(F)(F)F)nc(S(C)(=O)=O)n2)cc1OC`: > 40 µM (inactive).
Under `CC(C)(C)C(=O)/C(=C/c1cccc([N+](=O)[O-])c1)n1cncn1` stands > 40 µM (inactive).
As for `Cc1ccc(N(C)C(=O)Oc2ccc(C(=O)c3ccc(Cl)cc3)cc2)cc1`, the EC50 is > 40 µM (inactive).
On to `C/C(=N\NC(=O)c1ccccc1O)C1C(=O)c2ccccc2C1=O`, for which the EC50 is > 40 µM (inactive).
`O=c1c(-c2ccc(Cl)cc2)[n+]([O-])c2ccccc2n1OCc1ccccn1`: the EC50 is > 40 µM (inactive).
`COC(=O)/C(=C/c1cn(C)c2ccccc12)[N+](=O)[O-]`: the EC50 is > 40 µM (inactive).
The same measure for `CN(C)/C=C(/C(=O)c1ccc(Cl)cc1Cl)S(=O)(=O)c1ccc(Cl)cc1`: > 40 µM (inactive).
On to `CC(C)Cn1c(=O)c(C(=O)Nc2cnccn2)c(O)c2ccccc21`, for which the EC50 was > 40 µM (inactive).
On to `COC(=O)CC1=NN(c2ccccc2)C(=O)/C1=C\c1ccc(OC)cc1`, for which the EC50 was > 40 µM (inactive).
The same measure for `CCn1c(=O)c2c(O)cc(=O)oc2c2ccccc21`: > 40 µM (inactive).
